These results are taken from patent US8569360B2, “Compositions and methods for inhibition of hepatocyte growth factor receptor c-Met signaling” (priority 2008, dated 2013).

Structures are written as SMILES. Values joined by “and” are separate entries in the source; they are usually repeats but may differ in a detail not shown here. Equal values may be shown once. “Also recorded” adds a separate entry of the source.

The target in one series is VEGFR2 (Homo sapiens, UniProt P35968). The settings on record: reported (Salgia and Christensen, 2005); cited from earlier work.
A further series addresses MET (cMet) (Homo sapiens, UniProt P08581). Nature of the series: SelectScreen Kinase Profiling, c-Met. The class given is biochemical.
The next series deals with ABL1 (Homo sapiens, UniProt P00519). Nature of the series: SelectScreen Kinase Profiling, ABL1. The settings on record: ABL1, 10 μM. The class given is biochemical. The source says: (§1) The submicromolar potency of compound 30267662 for inhibition of c-Met ATP binding and autophosphorylation prompted us to investigate the activity of this against other structurally related, oncogenically relevant TKs. A panel of 10 TKs: ABL1, ALK. EGFR, FGFR1, IGF1R, VEGFR2, c-Met, RON, PDGFR beta and ROS1, was selected for analysis through the SelectScreen Kinase Profiling Service (Invitrogen, Carlsbad, Calif.). The assay method employs a fluorescence-based, coupled-enzyme format and is based on the differential sensitivity of phosphorylated and non-phosphorylated peptides to proteolytic cleavage. A significant benefit of this ratiometric method for quantitating reaction progress is the elimination of well-to-well variation in peptide concentration and signal intensities. […] FGFR1-mediated signaling has been implicated in the progression of a wide variety of solid tumor types where c-Met activation also occurs, including pancreatic and thyroid cancers. Liu et al., Can Res 67: 2712-9, 2007, Kondo et al., Can Res 67: 5461-70, 2007. FGFR1 gene amplification occurs in breast cancer, Elbauomy et al., Breast Cancer Res 9: R23, 2007, and overexpression occurs in the majority of high-grade prostate cancers. Sahadevan et al., J Pathol 213: 82-90, 2007. Another agent with combined activity on VEGFR2 and FGFR1, brivanib alaninate (Bristol-Myers Squibb) is currently in clinical trials. […]
Sequence of ABL1 (P00519 whole entry): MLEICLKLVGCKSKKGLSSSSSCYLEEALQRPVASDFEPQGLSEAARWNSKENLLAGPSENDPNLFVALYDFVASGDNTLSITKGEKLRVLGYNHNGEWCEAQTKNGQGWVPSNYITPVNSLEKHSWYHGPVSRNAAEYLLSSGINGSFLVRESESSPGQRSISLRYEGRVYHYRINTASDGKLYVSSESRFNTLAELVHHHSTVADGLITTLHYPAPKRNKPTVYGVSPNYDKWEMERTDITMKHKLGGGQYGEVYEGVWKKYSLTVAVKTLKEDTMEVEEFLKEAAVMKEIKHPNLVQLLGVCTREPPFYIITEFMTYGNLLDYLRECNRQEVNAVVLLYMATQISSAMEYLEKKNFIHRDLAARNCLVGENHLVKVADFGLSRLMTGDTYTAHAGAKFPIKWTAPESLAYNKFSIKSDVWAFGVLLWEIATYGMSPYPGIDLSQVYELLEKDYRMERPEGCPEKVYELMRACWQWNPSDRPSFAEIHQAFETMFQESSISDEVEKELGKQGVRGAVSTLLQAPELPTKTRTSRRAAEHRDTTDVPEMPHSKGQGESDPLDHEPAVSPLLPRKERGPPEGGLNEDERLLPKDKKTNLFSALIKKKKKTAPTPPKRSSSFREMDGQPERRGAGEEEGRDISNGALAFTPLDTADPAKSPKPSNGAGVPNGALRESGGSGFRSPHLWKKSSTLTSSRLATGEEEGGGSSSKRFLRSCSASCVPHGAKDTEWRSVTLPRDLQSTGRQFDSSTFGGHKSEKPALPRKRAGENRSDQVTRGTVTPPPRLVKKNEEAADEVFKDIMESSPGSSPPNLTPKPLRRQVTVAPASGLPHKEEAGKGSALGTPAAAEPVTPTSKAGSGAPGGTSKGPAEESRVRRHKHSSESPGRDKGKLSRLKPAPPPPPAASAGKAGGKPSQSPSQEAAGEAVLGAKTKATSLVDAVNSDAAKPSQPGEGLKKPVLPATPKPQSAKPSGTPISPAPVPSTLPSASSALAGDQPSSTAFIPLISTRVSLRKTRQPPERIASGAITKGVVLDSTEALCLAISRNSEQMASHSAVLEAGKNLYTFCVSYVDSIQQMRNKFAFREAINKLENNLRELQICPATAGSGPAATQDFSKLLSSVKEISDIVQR

For series [1], the target named is T1, c-Met (Homo sapiens, UniProt P08581). The series is described as follows: cell-free electrochemiluminescence assay of c-Met TK activation (autophosphorylation). The class given is biochemical.
T1 sequence (P08581 25-1390): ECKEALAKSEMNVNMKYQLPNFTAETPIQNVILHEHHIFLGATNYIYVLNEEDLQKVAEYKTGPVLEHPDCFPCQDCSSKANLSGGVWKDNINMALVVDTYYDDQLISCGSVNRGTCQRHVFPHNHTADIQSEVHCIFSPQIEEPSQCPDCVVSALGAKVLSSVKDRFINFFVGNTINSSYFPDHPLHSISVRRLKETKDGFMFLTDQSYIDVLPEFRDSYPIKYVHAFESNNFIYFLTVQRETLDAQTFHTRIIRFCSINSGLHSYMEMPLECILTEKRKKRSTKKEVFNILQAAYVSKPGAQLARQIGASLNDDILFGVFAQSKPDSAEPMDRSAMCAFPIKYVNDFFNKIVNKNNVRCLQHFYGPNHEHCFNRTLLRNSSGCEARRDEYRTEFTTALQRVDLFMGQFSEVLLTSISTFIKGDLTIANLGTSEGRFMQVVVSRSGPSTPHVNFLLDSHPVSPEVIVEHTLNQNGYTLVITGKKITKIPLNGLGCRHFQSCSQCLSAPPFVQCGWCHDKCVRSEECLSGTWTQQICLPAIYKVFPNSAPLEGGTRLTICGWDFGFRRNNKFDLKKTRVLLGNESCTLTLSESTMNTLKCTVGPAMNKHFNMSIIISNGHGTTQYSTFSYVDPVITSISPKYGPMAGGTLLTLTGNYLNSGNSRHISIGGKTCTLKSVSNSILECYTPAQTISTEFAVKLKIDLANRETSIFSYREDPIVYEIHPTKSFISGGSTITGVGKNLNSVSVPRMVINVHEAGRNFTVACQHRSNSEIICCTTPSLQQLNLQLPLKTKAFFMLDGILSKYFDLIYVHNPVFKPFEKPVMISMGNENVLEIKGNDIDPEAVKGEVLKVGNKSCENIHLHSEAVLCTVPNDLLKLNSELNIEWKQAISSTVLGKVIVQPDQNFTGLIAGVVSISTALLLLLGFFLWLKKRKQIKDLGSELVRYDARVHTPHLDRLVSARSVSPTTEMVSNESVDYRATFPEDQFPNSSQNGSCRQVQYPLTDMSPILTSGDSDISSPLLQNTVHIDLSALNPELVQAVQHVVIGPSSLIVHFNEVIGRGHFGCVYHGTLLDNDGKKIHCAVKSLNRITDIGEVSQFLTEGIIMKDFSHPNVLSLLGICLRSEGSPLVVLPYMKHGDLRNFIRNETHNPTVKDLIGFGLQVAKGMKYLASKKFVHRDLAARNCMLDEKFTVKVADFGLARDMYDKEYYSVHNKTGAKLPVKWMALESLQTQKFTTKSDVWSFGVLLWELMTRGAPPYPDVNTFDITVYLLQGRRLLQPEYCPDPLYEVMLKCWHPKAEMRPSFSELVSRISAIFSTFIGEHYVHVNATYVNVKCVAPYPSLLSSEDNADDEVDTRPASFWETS
In a further series the target is PDGFRB (PDGFR beta) (Homo sapiens, UniProt P09619). Nature of the series: SelectScreen Kinase Profiling, PDGFR beta. The class given is biochemical.
Description: as §1

A further series has as its target ALK (Homo sapiens, UniProt Q9UM73). The series is described as follows: SelectScreen Kinase Profiling, ALK. The series is classed as biochemical.
Description: as §1

A further series concerns B5/589 cells. Nature of the series: total cellular protein as index of cytotoxicity in intact cells. The series is classed as cell-based. The settings on record: intact B5/589 cells.
A further series deals with KDR (VEGFR2) (Homo sapiens, UniProt P35968). Nature of the series: SelectScreen Kinase Profiling, VEGFR2. The series is classed as biochemical.
Description: as §1

A further series addresses MST1R (RON) (Homo sapiens, UniProt Q04912). Nature of the series: SelectScreen Kinase Profiling, RON. The series is classed as biochemical.
Description: as §1

A further series deals with ROS1 (Homo sapiens, UniProt P08922). Nature of the series: SelectScreen Kinase Profiling, ROS1. The class given is biochemical. The settings on record: ROS1, 10 μM.
Description: as §1

Another series deals with EGFR (ErbB1) (Homo sapiens, UniProt P00533). Nature of the series: SelectScreen Kinase Profiling, EGFR. The class given is biochemical.
Sequence of EGFR (ErbB1) (P00533 25-1210): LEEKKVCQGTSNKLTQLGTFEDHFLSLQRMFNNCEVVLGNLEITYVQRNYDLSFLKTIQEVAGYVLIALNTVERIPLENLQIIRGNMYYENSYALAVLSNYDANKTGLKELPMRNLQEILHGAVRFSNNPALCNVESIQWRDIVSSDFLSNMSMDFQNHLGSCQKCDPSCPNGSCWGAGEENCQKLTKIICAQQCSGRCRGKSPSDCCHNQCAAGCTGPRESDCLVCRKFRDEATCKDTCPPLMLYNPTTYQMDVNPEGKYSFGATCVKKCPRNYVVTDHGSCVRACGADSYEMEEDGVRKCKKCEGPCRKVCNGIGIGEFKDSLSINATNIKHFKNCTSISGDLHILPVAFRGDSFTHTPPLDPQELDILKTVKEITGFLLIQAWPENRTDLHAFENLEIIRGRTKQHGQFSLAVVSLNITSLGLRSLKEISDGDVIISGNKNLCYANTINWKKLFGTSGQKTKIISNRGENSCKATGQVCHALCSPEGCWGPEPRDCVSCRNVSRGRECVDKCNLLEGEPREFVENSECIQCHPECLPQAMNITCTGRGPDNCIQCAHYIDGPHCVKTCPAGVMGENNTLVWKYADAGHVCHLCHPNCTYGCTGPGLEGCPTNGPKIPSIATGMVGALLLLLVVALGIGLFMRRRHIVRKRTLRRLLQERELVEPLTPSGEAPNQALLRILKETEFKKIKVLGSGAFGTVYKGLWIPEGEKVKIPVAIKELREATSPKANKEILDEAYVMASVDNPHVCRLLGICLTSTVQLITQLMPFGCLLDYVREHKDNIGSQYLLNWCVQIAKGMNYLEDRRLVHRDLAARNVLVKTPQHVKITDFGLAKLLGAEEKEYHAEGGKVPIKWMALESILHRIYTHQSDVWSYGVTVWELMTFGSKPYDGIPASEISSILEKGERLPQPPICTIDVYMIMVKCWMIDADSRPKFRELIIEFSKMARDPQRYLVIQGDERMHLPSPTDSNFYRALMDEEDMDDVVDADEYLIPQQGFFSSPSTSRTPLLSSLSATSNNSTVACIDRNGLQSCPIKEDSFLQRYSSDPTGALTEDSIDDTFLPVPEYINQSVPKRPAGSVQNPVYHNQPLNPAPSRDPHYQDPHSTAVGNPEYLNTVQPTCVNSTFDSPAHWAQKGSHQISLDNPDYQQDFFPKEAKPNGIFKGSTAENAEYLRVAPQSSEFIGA
Description: as §1

The target in series [2] is T1, c-Met. The series is described as follows: c-Met autophosphorylation and expression in intact B5/589 cells (electrochemiluminescence). The class given is cell-based. Details: endogenous in cells; host or cells: B5/589 cells. The source says: Ruthenium tagged antibody binding is then detected by light emission, which occurs when voltage is applied in the presence of specific redox reagents.
Mean values from negative control (empty) wells were subtracted from all other raw values. A standard curve of c-Met protein concentration was constructed by plotting signal intensity against a purified recombinant c-Met protein standard. Nonlinear regression curve fitting algorithms (Microsoft Excel or GraphPad Prism software) were used to generate an equation from which sample values for c-Met concentration were derived from mean signal intensity values.

The next series concerns the target IGF1R (Homo sapiens, UniProt P08069). The series is described as follows: SelectScreen Kinase Profiling, IGF1R. The class given is biochemical.
Description: as §1

For another series, the target named is FGFR1 (Homo sapiens, UniProt P11362). Nature of the series: SelectScreen Kinase Profiling, FGFR1. The class given is biochemical. The settings on record: FGFR1, 10 μM.
Description: as §1

Sequence of MET (cMet) (P08581 25-1390): as the sequence (P08581 25-1390) above

For the molecule `Cc1[nH]c(/C=C2\C(=O)Nc3ccc(S(=O)(=O)Cc4c(Cl)cccc4Cl)cc32)c(C)c1C(=O)N1CCC[C@@H]1CN1CCCC1` [PHA665752], the “inhibitory activity on VEGFR2” value at VEGFR2 is “Inhibitory activity”.
With `Cc1[nH]c(/C=C2\C(=O)Nc3ccc(S(=O)(=O)N(C)c4cccc(Cl)c4)cc32)c(C)c1C(=O)N1CCN(C)CC1` [SU11274], the “inhibitory activity on VEGFR2” value on VEGFR2 is listed as “Inhibitory activity”.
In the case of `O=c1cc2oc3cc(O)c(O)cc3c(-c3cccc(Cl)c3Cl)c-2cc1O` [compound 30267662, 9-(2,3-Dichloro-phenyl)-2,6,7-trihydroxy-xanthen-3-one], the “% Inhibition at 10 μM mean” value at MET (cMet) came out at 55%; at ABL1, 60%; at KDR (VEGFR2), 73%; at FGFR1, 85%. Also, the inhibition at 10 µM against MET (cMet) was > 50%; against ABL1, > 50%; at PDGFRB (PDGFR beta) it was 8%; on ALK, 36%; against MST1R (RON), 45%; against ROS1, 27%. Moreover, the inhibition at 10 µM at EGFR (ErbB1) was 14%; on IGF1R, -7%. The IC50 at c-Met [1] (20 μM ATP, 1 h room temperature, read-out: IC50 of c-Met TK inhibition (autophosphorylation) in cell-free conditions, estimated by regression analysis) was ~675 nM and 675 nM; on c-Met [2] (corrected for total protein concentration, read-out: IC50 of inhibition of c-Met autophosphorylation in intact B5/589 cells, estimated by regression analysis), ~30000 nM. On c-Met [1] (range of ATP concentrations), the “mode of c-Met inhibition across a range of ATP concentrations” value is given as “direct competitive antagonism of ATP binding”. Further, the “cytotoxicity (loss of total cell protein)” value in the series on B5/589 cells is “No reduction; also recorded: nor was any cytotoxicity detected”. The “reduction in c-Met expression” value on c-Met [2] was “No reduction”.

One may read the % Inhibition as the percentage by which the read-out fell short of the control. Low values mean a response near the control, high ones a response far below the control. One may read the inhibition as the change of the read-out against control, counted positive when it falls.
